What was measured:
[1] = target: 5-HT2C (Homo sapiens, UniProt P28335); experiment: Radioligand ([3H]-LSD) competition binding assays, 5-HT2C versus 5-HT2A; conditions: FIG. 4
Protocol: Radioligands Binding Assays. Binding buffer consisted of 50 mM Tris HCl, 10 mM MgCl2, 0.1 mM EDTA disodium dihydrate in autoclaved deionized water. The solution was adjusted to pH 7.4 with […] NaOH(aq) and stored at 4° C. This solution was used for membrane preparation generation as well as in saturation and competition binding assays.
For the generation of membrane preparations, 15-cm plates of PSYLI2 cells (HEK293T cell line stably expressing psychLight2; mycoplasma free) or HEK293T cells (ATCCCRL-11268; mycoplasma free) lipofected with pCMV-GRAB_5-HT were grown in Dulbecco's Modified Eagle Media (DMEM) (Fisher, 11995073) containing 10% fetal bovine serum (Fisher, 26-140-079) and 1% penicillin/streptomycin (Fisher, 15140-163). When the cells were >90% confluent, the media was removed, and the cells were washed with Dulbecco's Phosphate Buffered Saline (DPBS, 15 mL) (ThermoFisher, #14190-250). Next, DMEM (15 mL) lacking fetal bovine serum and penicillin/streptomycin was added, and the cells were serum-starved for 4-12 h. All but ~5 mL of the media was removed from the plates before placing them on ice. […] The suspension was transferred to 2.0 mL Eppendorf tubes in 1.0 mL aliquots, saving a single aliquot of 0.25-0.50 mL suspension to use for quantification of protein concentration via a Bradford assay. […]

[2] = target: T1, human recombinant 5-HT2AR (Homo sapiens, UniProt P28223); experiment: IPOne HTRF assay, 5-HT2AR; format: cell-based; conditions: for antagonist activity at 5-HT2A, IP-One: antagonist mode
T1 construct: host or cells: CHO-K1
Protocol: (§1) IPOne Assays. The 5-HT2AR and 5-HT2CR IPOne HTRF assays were performed at Epics Therapeutics S.A. (Belgium, FAST-0505I) using conventional methods. Briefly, CHO-K1 cells expressing human recombinant 5-HT2AR or 5-HT2CR grown to mid-log phase in culture media without antibiotics were detached with PBS-EDTA, centrifuged, and resuspended in medium without antibiotics buffer. Then, 20,000 cells were distributed in a 96-well plate and incubated overnight at 37° C. with 5% CO2. For agonist testing, the medium was removed and 20 μL of assay buffer plus 20 μL of test compound or reference agonist (α-Me-5-HT) was added to each well. The plate was incubated for 60 min at 37° C. with 5% CO2. For antagonist testing, the medium was removed and 20 μL of assay buffer plus 20 μL of test compound or reference antagonist (ketanserin) was added to each well. The plate was incubated for 60 min at 37° C. with 5% CO2. After addition of the lysis buffer containing IP1-d2 and anti-IP1 cryptate detection reagents, plates were incubated for 1 h at room temperature and fluorescence ratios were measured according to the manufacturer's specifications using the HTRF kit.

[3] = target: T2, human recombinant 5-HT2CR (Homo sapiens, UniProt P28335); experiment: IPOne HTRF assay, 5-HT2CR; format: cell-based; conditions: for antagonist activity at 5-HT2C, IP-One / selectivity of antagonism, 5-HT2C versus 5-HT2A, IP-One: antagonist mode
T2 construct: host or cells: CHO-K1
T2 sequence (P28335 33-458): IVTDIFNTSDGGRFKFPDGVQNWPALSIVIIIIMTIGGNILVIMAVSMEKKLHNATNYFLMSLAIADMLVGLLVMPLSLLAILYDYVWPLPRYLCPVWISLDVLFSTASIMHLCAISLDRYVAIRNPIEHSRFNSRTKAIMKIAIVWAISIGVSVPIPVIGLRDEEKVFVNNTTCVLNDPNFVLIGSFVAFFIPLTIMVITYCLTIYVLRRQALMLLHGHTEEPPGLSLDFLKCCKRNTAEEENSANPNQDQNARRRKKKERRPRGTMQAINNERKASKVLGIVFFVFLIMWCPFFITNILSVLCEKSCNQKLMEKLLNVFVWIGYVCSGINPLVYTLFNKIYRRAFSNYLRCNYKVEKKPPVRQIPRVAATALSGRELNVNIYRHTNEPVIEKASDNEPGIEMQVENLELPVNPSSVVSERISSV
Protocol: as §1

[4] = tested on: embryonic rat cortical cultures; experiment: Total neurite length in embryonic rat cortical cultures; format: cell-based; conditions: embryonic rat cortical cultures (DIV=0), treated for 72 h
Protocol: Each data point represents a well average from two independent cultures. Data are represented as mean f SEM. *p<0.05, **p<0.01, ***p<0.001, ****p<0.0001, as compared to the vehicle control following a one-way ANOVA with Dunnett's post hoc test. VEH=vehicle; DON=250 nM donepezil; OKA=30 nM okadaic acid.

T1 sequence (P28223 whole entry): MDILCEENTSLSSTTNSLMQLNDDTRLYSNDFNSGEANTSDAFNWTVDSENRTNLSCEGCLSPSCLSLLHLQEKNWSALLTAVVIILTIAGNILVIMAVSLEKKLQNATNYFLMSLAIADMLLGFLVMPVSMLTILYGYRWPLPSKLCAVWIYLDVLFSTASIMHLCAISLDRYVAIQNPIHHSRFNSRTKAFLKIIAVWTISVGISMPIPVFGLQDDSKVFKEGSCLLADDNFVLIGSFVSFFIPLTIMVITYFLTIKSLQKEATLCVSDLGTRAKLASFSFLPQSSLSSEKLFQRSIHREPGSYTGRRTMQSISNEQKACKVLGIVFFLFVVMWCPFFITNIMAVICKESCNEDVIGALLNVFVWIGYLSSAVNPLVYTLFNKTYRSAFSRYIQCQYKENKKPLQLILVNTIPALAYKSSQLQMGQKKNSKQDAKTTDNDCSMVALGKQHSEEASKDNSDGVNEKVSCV

Structure (SMILES)	affinity for 5-HT2C relative to 5-HT2A [1]	activation of 5-HT2A, IP-One agonist mode [2]	antagonist activity at 5-HT2A, IP-One [2]	activation of 5-HT2C, IP-One agonist mode [3]	antagonist activity at 5-HT2C, IP-One [3]	selectivity of antagonism, 5-HT2C versus 5-HT2A, IP-One [3]	average total neurite length per neuron [4]
COc1ccc2c3ccnc(C)c3n(CCN(C)C)c2c1.O=C(O)/C=C/C(=O)O [HTW_A_8 fumarate, 2-(7-methoxy-1-methyl-9H-pyrido[3,4-b]indol-9-yl)-N,N-dimethylethan-1-amine Fumarate Salt (2:3)]	higher affinity ligands for 5-HT2C than 5-HT2A	no activation	antagonist activity	no activation	antagonist activity	moderate selectivity for antagonism of 5-HT2C	significantly increase average total neurite length per neuron
COc1ccc2c(c1)N(CCN(C)C)/C(=C/C(C)=O)S2.O=C(O)/C=C/C(=O)O [HTW_B_14 fumarate, (Z)-1-(3-(2-(dimethylamino)ethyl)-5-methoxybenzo[d]thiazol-2(3H)-ylidene)propan-2-one Fumarate Salt (1:1)]	higher affinity ligands for 5-HT2C than 5-HT2A	no activation	antagonist activity	no activation	antagonist activity	moderate selectivity for antagonism of 5-HT2C	significantly increase average total neurite length per neuron

— US20260284018A1, “DUAL INHIBITORS OF DYRK1A AND 5-HT2 FOR TREATING A BRAIN DISORDER” (THE REGENTS OF THE UNIVERSITY OF CALIFORNIA, priority 2023, published 2026)
